In one data set the target is AmpC (Escherichia coli, UniProt P00811). Format: biochemical.
The target in the next data set is TEM-1 (Escherichia coli, UniProt P62593). It counts as biochemical.
In the next data set the target is TEM-30 R244S (Escherichia coli, UniProt P62593, R241S). It counts as biochemical. The conditions noted are these: 4 vs 5 on TEM-30.
The target in data set [1] is T1, CTX-M-9 (Escherichia coli, UniProt Q9L5C8). Format: biochemical. The note with it: class A.
For data set [2] the following is noted: data not shown.
Data set [3] concerns the target T1, CTX-M-9. The note with it: read-out: affinity toward CTX-M-9 (Ki); cited from earlier work.

The values below come from article PMC4079326 (Journal of Medicinal Chemistry, 2014).

Each structure is given as a SMILES string.

Take `CC(=O)/C=C/c1c(B(O)O)sc2ccccc12` [Compound 4]: on AmpC, the “times less active vs AmpC” value is listed as 8 times. Moreover, on TEM-1, the “times less active vs class A” value is given as 125 times. The “change of binding vs TEM-30 with respect to compound 5” value on TEM-30 R244S is given as “less than 1 fold”.

Consider `O=C(O)/C=C/c1c(B(O)O)sc2ccccc12` [Compound 5, 3-(2-carboxyvinyl)benzo(b)thiophene-2-boronic acid], for which the “gain in affinity vs TEM-1 with respect to starting lead 1” value at TEM-1 (class A) worked out at 1250 fold. Moreover, the “improvement of binding energy vs TEM-1” value on TEM-1 (moving from 1 to 5) is 2.8 kcal/mol. The “gain in affinity vs CTX with respect to starting lead 1” value at CTX-M-9 [1] came out at 1250 fold. Moreover, the “stability in microbiology assay conditions over time” value in data set [2] is given as “unstable”.

One may read the Ki as a dissociation constant, usually derived from enzyme kinetics or from competition with a known ligand. In the case of `O=C(Cc1cccs1)N[C@H](B(O)O)c1cccc(C(=O)O)c1` [SMS2, (1R)-1-(2-thienylacetylamino)-1-(3-carboxyphenyl)methylboronic acid], the Ki on CTX-M-9 [3] was 578 nM.
